In PubChem BioAssay (NCI):
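Values below derive from 48-hour exposures of cells grown in 96-well plates, with endpoints linearly interpolated between the two concentrations bracketing the appropriate inhibition level. The concentration for 50% growth inhibition is given as GI50. At the TGI there is no net growth.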

Key:
Assay in all cases: NCI-60 cell line screen, 48 h
786-0 renal = test system: 786-0 renal
A498 renal = test system: A498 renal
A549 NSCLC = test system: A549 NSCLC
ACHN renal = test system: ACHN renal
BT-549 breast = test system: BT-549 breast
CAKI-1 renal = test system: CAKI-1 renal
CCRF-CEM leukemia = test system: CCRF-CEM leukemia
COLO 205 colon = test system: COLO 205 colon
DU-145 prostate = test system: DU-145 prostate
EKVX NSCLC = test system: EKVX NSCLC
HCC-2998 colon = test system: HCC-2998 colon
HCT-116 colon = test system: HCT-116 colon
HCT-15 colon = test system: HCT-15 colon
HL-60(TB) leukemia = test system: HL-60(TB) leukemia
HOP-62 NSCLC = test system: HOP-62 NSCLC
HOP-92 NSCLC = test system: HOP-92 NSCLC
HS 578T breast = test system: HS 578T breast
HT29 colon = test system: HT29 colon
IGROV1 ovarian = test system: IGROV1 ovarian
K-562 leukemia = test system: K-562 leukemia
KM12 colon = test system: KM12 colon
LOX IMVI melanoma = test system: LOX IMVI melanoma
M14 melanoma = test system: M14 melanoma
MALME-3M melanoma = test system: MALME-3M melanoma
MCF7 breast = test system: MCF7 breast
MDA-MB-231 breast = test system: MDA-MB-231 breast
MDA-MB-435 = test system: MDA-MB-435
MOLT-4 leukemia = test system: MOLT-4 leukemia
NCI-H226 lung = test system: NCI-H226 lung
NCI-H23 lung = test system: NCI-H23 lung
NCI-H460 lung = test system: NCI-H460 lung
NCI-H522 lung = test system: NCI-H522 lung
NCI/ADR-RES ovarian = test system: NCI/ADR-RES ovarian
OVCAR-3 ovarian = test system: OVCAR-3 ovarian
OVCAR-4 ovarian = test system: OVCAR-4 ovarian
OVCAR-5 ovarian = test system: OVCAR-5 ovarian
OVCAR-8 ovarian = test system: OVCAR-8 ovarian
PC-3 prostate = test system: PC-3 prostate
RPMI-8226 leukemia = test system: RPMI-8226 leukemia
RXF 393 renal = test system: RXF 393 renal
SF-268 CNS = test system: SF-268 CNS
SF-295 CNS = test system: SF-295 CNS
SF-539 CNS = test system: SF-539 CNS
SK-MEL-2 melanoma = test system: SK-MEL-2 melanoma
SK-MEL-28 melanoma = test system: SK-MEL-28 melanoma
SK-MEL-5 melanoma = test system: SK-MEL-5 melanoma
SK-OV-3 ovarian = test system: SK-OV-3 ovarian
SN12C renal = test system: SN12C renal
SNB-19 CNS = test system: SNB-19 CNS
SNB-75 CNS = test system: SNB-75 CNS
SR leukemia = test system: SR leukemia
SW-620 colon = test system: SW-620 colon
T-47D breast = test system: T-47D breast
TK-10 renal = test system: TK-10 renal
U251 CNS = test system: U251 CNS
UACC-257 melanoma = test system: UACC-257 melanoma
UACC-62 melanoma = test system: UACC-62 melanoma
UO-31 renal = test system: UO-31 renal

**Q.** Which results are given for `CN1CCN(Cc2ccc(NC(=O)c3cncc(C#Cc4cnc5ccc(N6CCN(C)CC6)nn45)c3)cc2C(F)(F)F)CC1`?
**A.** GI50 (786-0 renal): 1550 nM; TGI (786-0 renal): 3110 nM; GI50 (A498 renal): 2130 nM; TGI (A498 renal): 3610 nM; GI50 (A549 NSCLC): 1620 nM; TGI (A549 NSCLC): 3910 nM; GI50 (ACHN renal): 1330 nM; TGI (ACHN renal): 2620 nM; GI50 (BT-549 breast): 1440 nM; TGI (BT-549 breast): 2880 nM; GI50 (CAKI-1 renal): 1670 nM; TGI (CAKI-1 renal): 3280 nM; GI50 (CCRF-CEM leukemia): 1940 nM; TGI (CCRF-CEM leukemia): 6470 nM; GI50 (COLO 205 colon): 1580 nM; TGI (COLO 205 colon): 3630 nM; GI50 (DU-145 prostate): 1590 nM; TGI (DU-145 prostate): 2940 nM; GI50 (EKVX NSCLC): 1300 nM; TGI (EKVX NSCLC): 2840 nM; GI50 (HCC-2998 colon): 1640 nM; TGI (HCC-2998 colon): 3050 nM; GI50 (HCT-116 colon): 1050 nM; TGI (HCT-116 colon): 2620 nM; GI50 (HCT-15 colon): 1430 nM; TGI (HCT-15 colon): 3370 nM; GI50 (HL-60(TB) leukemia): 2180 nM; TGI (HL-60(TB) leukemia): 4110 nM; GI50 (HOP-62 NSCLC): 2060 nM; TGI (HOP-62 NSCLC): 7020 nM; GI50 (HOP-92 NSCLC): 1340 nM; TGI (HOP-92 NSCLC): 8480 nM; GI50 (HS 578T breast): 1710 nM; TGI (HS 578T breast): 6570 nM; GI50 (HT29 colon): 1180 nM; TGI (HT29 colon): 3430 nM; GI50 (IGROV1 ovarian): 1750 nM; TGI (IGROV1 ovarian): 4160 nM; GI50 (K-562 leukemia): 57.6 nM; TGI (K-562 leukemia): 1630 nM; GI50 (KM12 colon): 29.2 nM; TGI (KM12 colon): 1390 nM; GI50 (LOX IMVI melanoma): 1160 nM; TGI (LOX IMVI melanoma): 2420 nM; GI50 (M14 melanoma): 1580 nM; TGI (M14 melanoma): 3240 nM; GI50 (MALME-3M melanoma): 2570 nM; TGI (MALME-3M melanoma): 11200 nM; GI50 (MCF7 breast): 835 nM; TGI (MCF7 breast): 2400 nM; GI50 (MDA-MB-231 breast): 751 nM; TGI (MDA-MB-231 breast): 2350 nM; GI50 (MDA-MB-435): 1410 nM; TGI (MDA-MB-435): 3060 nM; GI50 (MOLT-4 leukemia): 1330 nM; TGI (MOLT-4 leukemia): 3510 nM; GI50 (NCI-H226 lung): 436 nM; TGI (NCI-H226 lung): 10700 nM; GI50 (NCI-H23 lung): 1370 nM; TGI (NCI-H23 lung): 2960 nM; GI50 (NCI-H460 lung): 1870 nM; TGI (NCI-H460 lung): 4050 nM; GI50 (NCI-H522 lung): 1440 nM; TGI (NCI-H522 lung): 2960 nM; GI50 (NCI/ADR-RES ovarian): 1810 nM; TGI (NCI/ADR-RES ovarian): 3640 nM; GI50 (OVCAR-3 ovarian): 2150 nM; TGI (OVCAR-3 ovarian): 4110 nM; GI50 (OVCAR-4 ovarian): 1230 nM; TGI (OVCAR-4 ovarian): 3010 nM; GI50 (OVCAR-5 ovarian): 1830 nM; TGI (OVCAR-5 ovarian): 4220 nM; GI50 (OVCAR-8 ovarian): 1760 nM; TGI (OVCAR-8 ovarian): 3630 nM; GI50 (PC-3 prostate): 1660 nM; TGI (PC-3 prostate): 5100 nM; GI50 (RPMI-8226 leukemia): 2050 nM; TGI (RPMI-8226 leukemia): 7410 nM; GI50 (RXF 393 renal): 786 nM; TGI (RXF 393 renal): 2080 nM; GI50 (SF-268 CNS): 1530 nM; TGI (SF-268 CNS): 3200 nM; GI50 (SF-295 CNS): 1470 nM; TGI (SF-295 CNS): 2980 nM; GI50 (SF-539 CNS): 414 nM; TGI (SF-539 CNS): 1740 nM; GI50 (SK-MEL-2 melanoma): 10700 nM; TGI (SK-MEL-2 melanoma): 23300 nM; GI50 (SK-MEL-28 melanoma): 11900 nM; TGI (SK-MEL-28 melanoma): 24400 nM; GI50 (SK-MEL-5 melanoma): 1530 nM; TGI (SK-MEL-5 melanoma): 2910 nM; GI50 (SK-OV-3 ovarian): 15000 nM; TGI (SK-OV-3 ovarian): 30700 nM; GI50 (SN12C renal): 1150 nM; TGI (SN12C renal): 2560 nM; GI50 (SNB-19 CNS): 2290 nM; TGI (SNB-19 CNS): 4630 nM; GI50 (SNB-75 CNS): 1490 nM; TGI (SNB-75 CNS): 2950 nM; GI50 (SR leukemia): 781 nM; TGI (SR leukemia): 2920 nM; GI50 (SW-620 colon): 2120 nM; TGI (SW-620 colon): 6990 nM; GI50 (T-47D breast): 18000 nM; TGI (T-47D breast): 41800 nM; GI50 (TK-10 renal): 2060 nM; TGI (TK-10 renal): 4290 nM; GI50 (U251 CNS): 1660 nM; TGI (U251 CNS): 3320 nM; GI50 (UACC-257 melanoma): 4980 nM; TGI (UACC-257 melanoma): 18800 nM; GI50 (UACC-62 melanoma): 14500 nM; TGI (UACC-62 melanoma): 27800 nM; GI50 (UO-31 renal): 3750 nM; TGI (UO-31 renal): 14500 nM
